Results from patent publication US6995164B2, “Methods of treating tumors” (Rhode Island Hospital, priority 1999, dated 2006).
“Also recorded” adds a separate entry of the source.

Key:
glioblastoma multiforma = assay: Clinical use, intravenous infusion in advanced recurrent glioblastoma multiforma; format: in vivo, human; conditions: 20 g i.v. over 6 hours twice a week, at least one 5 week regimen
Experimental: Four patients, which were diagnosed with advanced recurrent glioblastoma multiforma, were treated with taurolidine. The prognosis for this group of patients was determined to be approximately 8 weeks of survival.

NIH-3T3 [1] = assay: Western-blot analysis of PARP cleavage; format: cell-based, murine; conditions: 24 h exposure to 50 or 100 μM
Experimental: (§1) Two×10^6 cells were seeded in 150 cm^2 tissue culture flasks. […] After an additional twenty-four hours, cells were harvested, cell number determined, and aliquots derived from equal cell numbers generated from each exposure condition. Total proteins from these whole cell lysates were separated by SDS-PAGE and transferred to nitrocellulose filters. Filters were then immunoblotted to detect intact PARP protein and cleavage fragments by using the clone C-2-10 mouse monoclonal anti-PARP antibody (Zymed Laboratories, San Francisco, Calif.). The resulting protein-antibody complexes were visualized by chemiluminescence techniques.
(§2) Western-blot analysis was used to assess of PARP cleavage. Two×10^6 cells were seeded into separate 75 cm^2 tissue culture flasks containing 20 ml of tissue culture media plus serum. […] Twenty-four hours after the addition of Taurolidine, cells were harvested, cell number determined, and aliquots containing an equal cell number were generated from each exposure condition. Total proteins from whole cell lysates generated from these aliquots were separated by SDS-PAGE and electrotransferred to nitrocellulose filters. Filters were then processed to detect intact PARP protein and cleavage fragments by using the clone C-2-10 mouse monoclonal anti-PARP antibody (Zymed Laboratories, San Francisco, Calif.). […]

[2] = tested on: human ovarian tumor cells; assay: Growth of established tumor cell colonies in vitro; format: cell-based; conditions: 24-hour exposure to 50 μM
Experimental: (§3) Parallel studies were carried out to assess whether disruption of cell adhesion played a role in the cytotoxic activity.

SKOV-3 [3] = assay: Cell cycle distribution and sub-G0/G1 DNA debris by flow cytometry (propidium iodide); format: cell-based, human; conditions: 48 h exposure
Experimental: (§4) Three×10^5 cells were seeded in plastic tissue culture flasks. […] Control cultures received an appropriate volume of Kollidine-17P. […] The percentage of DNA debris in the sub-G0/G1 region was assessed using cytofluorometric techniques. Each bar represents the mean (±SE) of three determinations. **p≦0.01, ***p≦0.001, ****p≦0.0001
(§5) For flow cytometry studies, 1×10^6 PA-1, SKOV-3, or NIH-3T3 cells were incubated for 24 h in appropriate media containing serum. […] Control cultures for each cell line were incubated in media containing 40 μl of 5% Kollidon 17PF alone. Forty-eight hours later, all cells were harvested by trypsinization and prepared for cytofluorometric analysis by standard methods. For example, harvested cells were resuspended in ice cold phosphate-buffered saline at a final cell density of 2×10^6 cells/ml. The cells then were stained for 30 min at room temperature in the dark with a solution of 0.05 mg/ml propidium iodide, 0.6% Igepal, and 1% sodium citrate. Flow cytometry was performed by FACScan (Becton Dickinson, Plymouth, England) using the ModFit LT program (Becton Dickinson). […]
(§6) Three×10^5 cells were seeded in plastic tissue culture flasks. […] After an additional 48 h, cells were harvested, stained with propidium iodide, and cell cycle distribution assessed using cytofluorometric techniques. […]

PA1 human ovarian cells = assay: Cell cycle kinetics and DNA fragmentation after 24-hour exposure; format: cell-based
Text: (§7) This DNA fragmentation was not observed in normal 3T3 cells.

3T3 cells = assay: as above; format: cell-based
Text: as §7

NIH-3T3 [4] = assay: Cell cycle distribution and sub-G0/G1 DNA debris by flow cytometry (propidium iodide); format: cell-based, murine; conditions: 48 h exposure
Experimental: as §4, §5, §6

[5] = tested on: MDR-transfected glioblastoma cells; assay: Cytotoxicity to drug resistant tumor cells
Text: Glioblastoma cells were transfected with a gene encoding multiple drug resistance (MDR).

tumor cells = assay: Apoptosis of tumor cells in culture; format: cell-based
[6] = tested on: normal murine bone marrow cultures; assay: Cytotoxic and apoptotic activity in normal primary cells; format: cell-based
Text: This observation was confirmed using normal (non-tumor) primary cells derived from animals, which are known to be free of tumors.

[7] = tested on: HL-60 human promyelocytic cell line; assay: Apoptosis induction in non-adherent cancer cell model; format: cell-based
[8] = Taurolidine-induced toxicity, 3 consecutive daily i.p. bolus injections; format: in vivo
Experimental: (§8) Studies to assess in vivo toxicity and therapeutic effectiveness were carried out in 6–12 week old female homozygous athymic (Hsd:athymic nude nu/nu) mice obtained from Harlan (Indianapolis, Ind.).
Control animals received 1 ml injections of 5% Kollidon 17PF alone. Animals were examined daily and body weight recorded twice weekly. A reduction in body weight of greater than 10% was considered significant. The maximally tolerated dose (MTD) was considered to be the dose which produced ˜10% mortality.
During the injection regimen, and daily thereafter for 30 d, mice were weighed and examined. Experiments were repeated a minimum of three times and mortality and weight loss data pooled.

[9] = tested on: SKOV-3 human ovarian tumor xenografts; assay: Therapeutic effectiveness against i.p. human ovarian tumor xenografts; format: in vivo, female nude mice
Text: Fourteen days following the final Taurolidine injection, mice in all groups were sacrificed and the peritoneal cavity examined for the presence of tumors. Each experimental was repeated three times and the pooled number of animals in each group ranged from 15–21.
Fourteen days following the final Taurolidine injection, mice in all groups were sacrificed, i.p. ovarian tumor xenografts removed and tumor weighed. Each experiment was repeated three times and the pooled number of animals in each group ranged from 15–21. Each bar represents the mean (±SE) tumor weight of 15–21 animals. ***p≦0.001, ****p≦0.0001.
as §8
To evaluate therapeutic effectiveness, mice received a single intraperitoneal injection of 5×10^6 SKOV-3 cells in a volume of 0.5 ml. Immediately thereafter, mice were randomly divided into treatment groups of 7 animals. […] Control animals received 1 ml injections of 5% Kollidon 17PF alone. Animals were examined daily and body weight recorded twice weekly. […] The mean tumor weight for each treatment group was calculated and statistical analysis of differences in the mean tumor weight between treatment groups employed the Student's t-test. p-values of ≦0.05 were considered significant.

[10] = tested on: aerobic and anaerobic bacterial strains; conditions: depending on the bacterial strain evaluated; cited from earlier work
[11] = Clinical tolerability (i.p. lavage in recurrent ovarian tumors, systemic in glioblastoma); format: in vivo, human; conditions: i.p. lavage after surgery (ovarian) or systemic (glioblastoma)
Experimental: Taurolidine was administered by i.p. lavage immediately following surgery for removal of recurrent ovarian tumors. For patients with glioblastoma, Taurolidine was administered systemically.

[12] = tested on: panel of human and murine neoplastic cell lines; assay: Cell growth inhibition across the cell line panel; format: cell-based; conditions: 72 h, 3 d exposure; panel of human and murine tumor cell lines; read-out: IC50s, range over all cell lines evaluated
Experimental: Included in the tumor cell line panel were ovarian tumor cells (PA-1 and SKOV-3), colon tumor cells (HCT-8, HCT-15 and HT-29), lung tumor cells (H-157, A-549 and H-596), prostate tumor cells (DU-145), glioma cells (U-251), and melanoma (MNT-1). The murine melanoma B16F10 cell line was also tested. These cell lines readily available, e.g., from the American Type Culture Collection (ATCC). Cells were cultured in appropriate growth medium at 37° C. in a humidified incubator in an atmosphere of 5% CO2. Under these growth conditions, the doubling time of all cell lines was 20–28 h.
One ml of this cell suspension was added to each well of a 12 well cell culture plate that contained 3 ml of appropriate media plus serum. […] Control wells received 40 μl of 5% Kollidon 17PF alone. Seventy-two hours later, all cells were harvested by trypsinization and cell number determined electronically using a Coulter Model Z1 particle counter (Coulter Corp., Miami, Fla.) to assess cell growth inhibition. Each experiment was performed in duplicate and repeated a minimum of three times.
Cells were seeded at a density of 1–5×10^4 cells in each well of a 6 well tissue culture flask. […] After three days, cells were harvested by trypsinization and cell number determined electronically. Cell growth inhibition was determined by comparison to non-Taurolidine exposed control cultures. […]

[13] = tested on: TNF; interleukins 1, 6, and 10; VEGF; TGF; assay: Angiogenesis factors in patients with metastatic colon cancer; format: in vivo, human; conditions: taurolidine-treated subjects compared to placebo
Experimental: Patients with metastatic colon cancer were treated with taurolidine and several factors controlling angiogenesis were measured.

PA-1 [14] = assay: Cell cycle distribution and sub-G0/G1 DNA debris by flow cytometry (propidium iodide); format: cell-based, human
Experimental: Three×10^5 cells were seeded in plastic tissue culture flasks. […] Control cultures received an appropriate volume of Kollidine-17P. […] The percentage of DNA debris in the sub-G0/G1 region was assessed using cytofluorometric techniques.
For flow cytometry studies, 1×10^6 PA-1, SKOV-3, or NIH-3T3 cells were incubated for 24 h in appropriate media containing serum. […] Control cultures for each cell line were incubated in media containing 40 μl of 5% Kollidon 17PF alone. Forty-eight hours later, all cells were harvested by trypsinization and prepared for cytofluorometric analysis by standard methods. For example, harvested cells were resuspended in ice cold phosphate-buffered saline at a final cell density of 2×10^6 cells/ml. The cells then were stained for 30 min at room temperature in the dark with a solution of 0.05 mg/ml propidium iodide, 0.6% Igepal, and 1% sodium citrate. Flow cytometry was performed by FACScan (Becton Dickinson, Plymouth, England) using the ModFit LT program (Becton Dickinson). Statistical analysis was performed with the Kruskal Wallis non-parametric ANOVA test followed by Dunn's multiple comparisons test using Instat.
as §6

SKOV-3 [15] = assay: Western-blot analysis of PARP cleavage; format: cell-based, human; conditions: 24 h exposure to 50 or 100 μM
Experimental: as §1, §2

PA-1 [16] = assay: Western-blot analysis of PARP cleavage; format: cell-based, human; conditions: 24 h exposure to 50 or 100 μM
Experimental: as §1, §2

human cancer cell lines = assay: In vitro cytotoxic activity survey of human cancer cell lines; format: cell-based
Experimental: as §3

With `O=S1(=O)CCN(CN2CCS(=O)(=O)NC2)CN1` [Taurolidine, Bis-(1,1-dioxoperhydro-1,2,4-thiadiazinyl-4)methane] the “patients in whom the tumor mass decreased or stayed the same” value (glioblastoma multiforma) was 3 out of the 4, the PARP cleavage (NIH-3T3 [1]) was “little evidence of this proteolytic event” and the PARP cleavage (NIH-3T3 [1]; listed as taurolidine) was “PARP cleavage was not evident”. For the same compound, the “cytotoxic effect against the growth of established tumor cells” value [2] was “significant cytotoxic effect”, the “effect on cell cycle distribution (in words)” value (“effect … (in words)” below) (SKOV-3 [3]) was “concentration-dependent decrease in the percentage of cells in G0/G1 but increased the percentage of cells in both the S-phase and G2/M” and the “DNA debris in the sub-G0/G1 region” value (SKOV-3 [3]; concentration-dependent) was “significantly increased DNA debris in the sub-G0/G1 region; also recorded: appearance of DNA debris in the sub-G0G1 region”. For the same compound, the cell cycle kinetics (PA1 human ovarian cells; PA1) was “significantly reduced the percentage of cells in both the S- and G2/M-phases”, the DNA fragmentation (PA1 human ovarian cells; human ovarian tumor cells, 50 μM, flow cytometry and agarose-gel electrophoresis) was “induced a high degree of DNA fragmentation; also recorded: overt DNA fragmentation” and the cell cycle kinetics (3T3 cells) was “significantly reduced the percentage of cells in both the S- and G2/M-phases”. The DNA fragmentation (3T3 cells; 50 μM, flow cytometry and agarose-gel electrophoresis) was “not observed; also recorded: not apparent”, the “DNA debris in the sub-G0/G1 region” value (NIH-3T3 [4]) was “did not increase DNA debris in sub-G0/G1 region; also recorded: did not significantly affect the appearance of DNA debris” and the “effect … (in words)” value (NIH-3T3 [4]) was “decreased the percentage of cells in G0/G1 and increased the percentage of cells in S in a concentration-dependent manner”. The cytotoxicity ([5]; MDR-transfected glioblastoma cells, 50 μM) was “Significant cytotoxicity”, the “incubation time after which apoptosis is induced” value (tumor cells) was “one” and the “concentration required to inhibit cell proliferation” value [6] was “concentrations in the mM range were required to inhibit cell proliferation”. The “exposure time that induces apoptosis” value ([7]; HL-60) was no more than 90 min, the apoptosis pathway events ([7]; non-adherent cancer cell models) was “activation of caspases 3, 8 and 9” and the “mortality (%)” value ([8]; 10 mg/mouse/inj i.p. on 3 consecutive days) was 6%. For the same compound, the “mortality (%)” value ([8]; 20 mg/mouse/inj i.p. on 3 consecutive days) was 13%, the “mortality (%)” value ([8]; 25 mg/mouse/inj i.p. on 3 consecutive days) was 47% and the “mortality (%)” value ([8]; 30 mg/mouse/inj i.p. on 3 consecutive days) was 100%. The “maximally tolerated dose (MTD)” value ([8]; mouse, in vivo, ip) was 20 mg/mouse, the “tumor formation, ascites development and growth” value ([9]; 3 d 20 mg/mouse regimen initiated on the day of tumor cell injection) was “highly effective and inhibited tumor formation” and the tumor growth inhibition ([9]; single cycle initiated 5 d after tumor cell injection (established i.p. tumors)) was “capable of significantly inhibiting tumor growth”. For the same compound, the “mean tumor size in treated mice versus controls” value ([9]; therapy delayed for up to 3 d after tumor cell injection) was “significantly smaller than in controls”, the “minimum concentration required to inhibit bacterial cell growth (MIC)” value [10] was 10 to 1000 µg/mL and the tolerability in patients [11] was “well tolerated”. For the same compound, the IC50 [12] was 9.6 to 34.2 µM, the “factors controlling the growth of blood vessels (TNF; interleukins 1, 6, 10; VEGF; TGF)” value [13] was “decreased” and the “effect … (in words)” value (PA-1 [14]; 48 h exposure to up to 100 μM) was “little effect on cell cycle distribution”. For the same compound, the “DNA debris in the sub-G0/G1 region” value (PA-1 [14]; 48 h exposure, concentration-dependent) was “significantly increased DNA debris in the sub-G0/G1 region; also recorded: appearance of DNA debris in the sub-G0G1 region”, the PARP cleavage (SKOV-3 [15]) was “induced PARP cleavage; also recorded: resulted in PARP cleavage” and the PARP cleavage (PA-1 [16]) was “induced PARP cleavage; also recorded: resulted in PARP cleavage”.
In the case of `COc1cccc2c1C(=O)c1c(O)c3c(c(O)c1C2=O)C[C@@](O)(C(=O)CO)C[C@@H]3O[C@H]1C[C@H](N)[C@H](O)[C@H](C)O1` [adriamycin], the “resistance of transfected cells to standard chemotherapeutic agents” value ([5]; MDR-transfected versus untransfected glioblastoma cells) is reported as 100–1000 times.
With `O=S1(=O)CCNCN1` [taurultam] the “induction of apoptotic death” value (human cancer cell lines; cancer cells versus normal control cells) was “induced apoptotic death of cancer cells but not normal control cells” and the “cytotoxic activity relative to taurolidine” value (human cancer cell lines; same human cancer cell lines as for taurolidine) was “approximately 75%”.
